From ChEMBL document CHEMBL3272157, “Cephalosporin derivatives with 2- and 4-pyridone groups at carbon-3” (1979) come the findings set out here.

A word on the MIC: it is the lowest concentration that inhibits growth of the organism. One may read the ED50 as the midpoint of the dose-response relation.

SMILES strings stand for the structures. In brackets after ≈: the same amount, converted by molar mass. Activity calls are given as the source filed them. No cut-off for these calls is given here.

Test [1] deals with Staphylococcus aureus. Briefly: In vitro antibacterial activity against Staphylococcus aureus assessed as growth inhibition after 17 hrs by serial two-fold dilution technique. Format: functional.
Test [2] has as its system Staphylococcus aureus. Nature of the test: In vitro antibacterial activity against benzylpenicillin-resistant Staphylococcus aureus assessed as growth inhibition after 17 hrs by serial two-fold dilution technique. Format: functional.
For test [3], the system named is Staphylococcus epidermidis. Briefly: In vitro antibacterial activity against benzylpenicillin-resistant Staphylococcus epidermidis assessed as growth inhibition after 17 hrs by serial two-fold dilution technique. Format: functional.
Test [4] has as its system Streptococcus pasteurianus. Briefly: In vitro antibacterial activity against Streptococcus pasteurianus assessed as growth inhibition after 17 hrs by serial two-fold dilution technique. Format: functional.
Test [5] concerns Streptococcus pyogenes. Nature of the test: In vitro antibacterial activity against Streptococcus pyogenes assessed as growth inhibition after 17 hrs by serial two-fold dilution technique. Format: functional.
Test [6] has as its system Escherichia coli. Briefly: In vitro antibacterial activity against Escherichia coli assessed as growth inhibition after 17 hrs by serial two-fold dilution technique. Format: functional.
The subject of test [7] is Klebsiella pneumoniae. Nature of the test: In vitro antibacterial activity against Klebsiella pneumoniae assessed as growth inhibition after 17 hrs by serial two-fold dilution technique. Format: functional.
In test [8] the test system is Proteus mirabilis. Briefly: In vitro antibacterial activity against Proteus mirabilis assessed as growth inhibition after 17 hrs by serial two-fold dilution technique. Format: functional.
The subject of test [9] is Salmonella. Briefly: In vitro antibacterial activity against Salmonella schottmuelleri assessed as growth inhibition after 17 hrs by serial two-fold dilution technique. Format: functional.
For test [10], the system named is Streptococcus pyogenes. Nature of the test: In vivo antibacterial activity against Streptococcus pyogenes infected in po dosed albino CD-1 mouse assessed as protection against bacterial infection by measuring host survival administered at 1 hr and 4 hrs after infection. Format: functional.
The subject of test [11] is Streptococcus pyogenes. Briefly: In vivo antibacterial activity against Streptococcus pyogenes infected in sc dosed albino CD-1 mouse assessed as protection against bacterial infection by measuring host survival administered at 1 hr and 4 hrs after infection. The format is functional.
The subject of test [12] is Streptococcus pasteurianus. Briefly: In vivo antibacterial activity against Streptococcus pasteurianus infected in sc dosed albino CD-1 mouse assessed as protection against bacterial infection by measuring host survival administered at 1 hr and 4 hrs after infection. The format is functional.
Test [13] deals with Salmonella. Briefly: In vivo antibacterial activity against Salmonella schottmuelleri infected in sc dosed albino CD-1 mouse assessed as protection against bacterial infection by measuring host survival administered at 1 hr and 4 hrs after infection. The format is functional.
The subject of test [14] is Streptococcus pneumoniae. Nature of the test: In vitro antibacterial activity against Streptococcus pneumoniae assessed as growth inhibition after 17 hrs by serial two-fold dilution technique. Format: functional.
Test [15] relates to Escherichia coli. Briefly: In vivo antibacterial activity against Escherichia coli infected in sc dosed albino CD-1 mouse assessed as protection against bacterial infection by measuring host survival administered at 1 hr and 4 hrs after infection. The format is functional.
Test [16] has as its system Klebsiella aerogenes. Nature of the test: In vitro antibacterial activity against cephalosporins-resistant Enterobacter aerogenes assessed as growth inhibition after 17 hrs by serial two-fold dilution technique. The format is functional, organism-based.
Test [17] concerns Enterobacter cloacae. Nature of the test: In vitro antibacterial activity against cephalosporins-resistant Enterobacter cloacae assessed as growth inhibition after 17 hrs by serial two-fold dilution technique. Format: functional, organism-based.
Test [18] relates to Proteus vulgaris. Briefly: In vitro antibacterial activity against cephalosporins-resistant Proteus vulgaris assessed as growth inhibition after 17 hrs by serial two-fold dilution technique. Format: functional, organism-based.
For test [19], the system named is Providencia stuartii. Nature of the test: In vitro antibacterial activity against cephalosporins-resistant Providencia stuartii assessed as growth inhibition after 17 hrs by serial two-fold dilution technique. The format is functional, organism-based.
The subject of test [20] is Pseudomonas aeruginosa. Briefly: In vitro antibacterial activity against cephalosporins-resistant Pseudomonas aeruginosa assessed as growth inhibition after 17 hrs by serial two-fold dilution technique. Format: functional, organism-based.
Test [21] deals with Serratia marcescens. Nature of the test: In vitro antibacterial activity against cephalosporins-resistant Serratia marcescens assessed as growth inhibition after 17 hrs by serial two-fold dilution technique. Format: functional, organism-based.

On to `CC1=C(C(=O)O)N2C(=O)[C@@H](NC(=O)[C@H](N)c3ccccc3)[C@H]2SC1` [CEPHALEXIN ANHYDROUS], for which the minimum inhibitory concentration (MIC) in [1] stood at 1.6 µg/mL (≈ 4.61 µM); in test [2], 6.2 µg/mL (≈ 17.8 µM); in test [3] it was 12.5 µg/mL (≈ 36 µM); in test [4], 1.6 µg/mL (≈ 4.61 µM); in test [5], 0.8 µg/mL (≈ 2.3 µM); in test [6] it was 6.2 µg/mL (≈ 17.8 µM). The MIC in test [7] was 3.1 µg/mL (≈ 8.92 µM); in test [8], 25 µg/mL (≈ 72 µM); in test [9], 6.2 µg/mL (≈ 17.8 µM); in test [14] it was over 100 µg/mL. In addition, the ED50 in [10] was 1.2 mg/kg; in [11] it was 3.4 mg/kg; in [12], 38.7 mg/kg; in test [13] it was 8.2 mg/kg; in [15], 5.6 mg/kg.
As for `N[C@@H](C(=O)N[C@@H]1C(=O)N2C(C(=O)O)=C(Cn3ccccc3=O)CS[C@H]12)c1ccccc1`, the MIC was 1.6 µg/mL (≈ 3.63 µM) in [1]; 6.2 µg/mL (≈ 14.1 µM) in test [2]; 6.2 µg/mL (≈ 14.1 µM) in test [3]; 0.2 µg/mL (≈ 0.454 µM) in [4]; 0.8 µg/mL (≈ 1.82 µM) in [5]; 25 µg/mL (≈ 56.8 µM) in [6]. Further, the MIC in [7] was 6.2 µg/mL (≈ 14.1 µM); in test [8], over 100 µg/mL; in [9], 12.5 µg/mL (≈ 28.4 µM); in test [14], 50 µg/mL (≈ 114 µM). Besides, the “growth inhibition (GI)” value in test [16], in [17], in test [18], in test [19], in test [20] and in [21] was “inactive” in each case. For the same compound, the ED50 in test [10] is over 8 mg/kg; in test [11], over 0.5 mg/kg; in test [12] it was 14 mg/kg; in test [13], 10 mg/kg; in test [15], 8.4 mg/kg.
As to `N[C@@H](C(=O)N[C@@H]1C(=O)N2C(C(=O)O)=C(Cn3ccc(=O)cc3)CS[C@H]12)c1ccccc1`, the minimal inhibitory concentration (MIC) came to 3.1 µg/mL (≈ 7.04 µM) in test [1]; 50 µg/mL (≈ 114 µM) in [2]; 25 µg/mL (≈ 56.8 µM) in test [3]; 0.4 µg/mL (≈ 0.908 µM) in test [4]; 1.6 µg/mL (≈ 3.63 µM) in test [5]; 12.5 µg/mL (≈ 28.4 µM) in test [6]. Besides, the MIC in test [7] amounted to 12.5 µg/mL (≈ 28.4 µM); in test [8], 50 µg/mL (≈ 114 µM); in test [9] it was 12.5 µg/mL (≈ 28.4 µM); in [14], 100 µg/mL (≈ 227 µM). For the same compound, the “growth inhibition (GI)” value in [16], in test [17], in [18], in test [19], in test [20] and in test [21] was “inactive” throughout. The 50% effective dose (ED50) in test [10] was over 8 mg/kg; in [11], over 0.5 mg/kg; in test [13], 5 mg/kg; in test [15] it was 4.6 mg/kg.
